Here are results for 9 compounds from patent EP0184322A1, “Benzimidazoles” (SMITH KLINE & FRENCH LABORATORIES LIMITED, priority 1984, dated 1986).

The test system of one assay is histamine stimulated gastric acid secretion. The assay can be described thus: Rat lumen perfused stomach (modified Ghosh and Schild procedure). The class given is in vivo. The settings on record: i.d. (intraduodenal) administration. The source says:
Using a modification of the procedure described by Ghosh and Schild (Br. J. Pharmacology, 13, 54, 1958), ED . values after either intraduodenal (i.d) or intravenous (i.v) administration were obtained as follows: […]
Take `COc1ccc2[nH]c([S+]([O-])Cc3ncc(C)c(N4CCOCC4)c3Cl)nc2c1` (stereo not drawn) [Example 6, 2-(4-morpholino-3-chloro-5-methyl-2-pyridylmethylsulphinyl)--5-methoxy-(1H)-benzimidazole]: it took a dose of 1.94 µmol/kg to reach the 50% effect level (ED50).
Take `COc1ccc2[nH]c([S+]([O-])Cc3ncc(C)c(N4CCCCC4)c3Cl)nc2c1` (stereo not drawn) [Example 8, 2-(4-piperidino-3-chloro-5-methyl-2-pyridylmethylsulphinyl)--5-methoxy-(1H)-benzimidazole]: it took a dose of 2.38 µmol/kg to reach the 50% effect level (ED50).
For `COc1ccc2[nH]c([S+]([O-])Cc3ncc(C)c(N(C)C)c3Cl)nc2c1` (stereo not drawn) [Example 16, 2-(4-dimethylamino-3-chloro-5-methyl-2-pyridylmethylsulphi-nyl)-5-methoxy-(1H)-benzimidazole], it took a dose of 1.46 µmol/kg to reach the 50% effect level (ED50).
Compound `COc1ccc2[nH]c([S+]([O-])Cc3ncc(Br)c(N4CCCCC4)c3C)nc2c1` (stereo not drawn) [Example 22, 2-(4-piperidino-5-bromo-3-methyl-2-pyridylmethylsulphinyl)--5-methoxy-(1 H)-benzimidazole] displayed an ED50 of 4.55 µmol/kg.

The assay is the same for the next values; noted with them: iv, i.v. administration.
Regarding `COc1ccc2[nH]c([S+]([O-])Cc3cc(N)c(Br)cn3)nc2c1` (stereo not drawn) [Example 2, 2-(4-amino-5-bromo-2-pyridylmethylsulphinyl)-5-methoxy-(1-H)-benzimidazole], the ED50 came out at 1.46 µmol/kg.
Compound `COc1ccc2[nH]c([S+]([O-])Cc3nccc(N4CCOCC4)c3Cl)nc2c1` (stereo not drawn) [Example 4, 2-(4-morpholino-3-chloro-2-pyridylmethyl-sulphinyl)-5-methoxy-(1 H)-benzimidazole] showed an ED50 of 1.17 µmol/kg.
Consider `COc1ccc2[nH]c([S+]([O-])Cc3ncc(C)c(N4CCCC4)c3Cl)nc2c1` (stereo not drawn) [Example 14, 2-(4-pyrrolidino-3-chloro-5-methyl-2-pyridylmethylsulphinyl)-5-methoxy-(1 H)-benzimidazole], for which the ED50 came out at 0.82 µmol/kg.
In the case of `COc1ccc2[nH]c([S+]([O-])Cc3cc(N4CCCCC4)c(Br)cn3)nc2c1` (stereo not drawn) [Example 18, 2-(4-piperidino-5-bromo-2-pyridylmethylsulphinyl) - 5-methoxy-(1 H)-benzimidazole], the median effective dose (ED50) is 0.85 µmol/kg.
With `COc1ccc2[nH]c([S+]([O-])Cc3nccc(N4CCCCC4)c3Br)nc2c1` (stereo not drawn) [Example 20, 2-(4-piperidino-3-bromo-2-pyridylmethylsulphinyl) - 5-methoxy-(1H)-benzimidazole], the ED50 is 0.86 µmol/kg.

One may read the ED50 as the dose that gives a 50% effect, or the effect in half of the subjects. High values mean a need for a large dose, low ones an effect at a small dose.
